Experimental findings from patent US7780988B2, “Method for making homogeneous spray-dried solid amorphous drug dispersions using pressure nozzles” (Bend Research, Inc., priority 2002, dated 2010) are described below.

As a reminder, the AUC is the area under the concentration-time curve, a measure of exposure.

A short description of data set [1]: Dissolution test of Drug 2 dispersions (as in Example 1, with exceptions). The following applies: 2000 μg/mL if all of the drug had dissolved, PBS pH 6.5, 37° C. The format is physicochemical. Here is the method: For this test, samples containing 7.2 mg of the Example 1 dispersion were added to microcentrifuge tubes, in duplicate. The tubes were placed in a 37° C. temperature-controlled chamber, and 1.8 mL PBS at pH 6.5 and having an osmotic pressure of 290 mOsm/kg was added. The samples were mixed using a vortex mixer for about 60 seconds. The samples were centrifuged at 13,000 G at 37° C. for 1 minute. The resulting supernatant solutions were then sampled and diluted 1:6 by volume with methanol and then analyzed by high-performance liquid chromatography (HPLC) at a UV absorbance of 256 nm using a Waters Symmetry C8 column and a mobile phase consisting of 15% (0.2% H3PO4)/85% methanol. The contents of the tubes were mixed on the vortex mixer and allowed to stand undisturbed at 37° C. until the next sample was taken. […]
The solubility and physical properties of the dispersions of Example 4 and Control C2 were determined as in Example 1 with the following exceptions. For measurement of concentration enhancement, sufficient quantities of the dispersion were added to the microcentrifuge tubes such that the concentration if all of the drug had dissolved would be 2000 μg/mL. Samples were analyzed by HPLC, with absorbance at 297 nm (Hewlett Packard 1100 HPLC, Zorbax SB C18 column, 35% acetonitrile/65% H2O). The same properties of a control of crystalline Drug 2 (CD2) alone were also determined.

Data set [2] is described as follows: Dissolution test of Drug 1 dispersions in PBS (concentration enhancement). The format is physicochemical. The following applies: PBS pH 6.5, 37° C. The protocol:
For this test, samples containing 7.2 mg of the Example 1 dispersion were added to microcentrifuge tubes, in duplicate. The tubes were placed in a 37° C. temperature-controlled chamber, and 1.8 mL PBS at pH 6.5 and having an osmotic pressure of 290 mOsm/kg was added. The samples were mixed using a vortex mixer for about 60 seconds. The samples were centrifuged at 13,000 G at 37° C. for 1 minute. The resulting supernatant solutions were then sampled and diluted 1:6 by volume with methanol and then analyzed by high-performance liquid chromatography (HPLC) at a UV absorbance of 256 nm using a Waters Symmetry C8 column and a mobile phase consisting of 15% (0.2% H3PO4)/85% methanol. The contents of the tubes were mixed on the vortex mixer and allowed to stand undisturbed at 37° C. until the next sample was taken. […] Control 1 and crystalline Drug 1 alone were tested using the same procedure.
The concentrations of drug obtained in these samples were used to determine the value of the maximum concentration of drug in the first ninety minutes (Cmax90) and the area under the curve of drug concentration versus time in the first ninety minutes (AUC90).

Consider `O=C(N[C@@H](Cc1ccccc1)[C@@H](O)C(=O)N1C[C@@H](O)[C@@H](O)C1)c1cc2cc(Cl)ccc2[nH]1` [CD2, 5-chloro-1H-indole-2-carboxylic acid [(1S)-benzyl-3-((3R,4S)-dihydroxypyrroldin-1-yl-)-(2R)-hydroxy-3-oxypropyl]amide], for which, in data set [1], the AUC90 is on record as 12,800 min · μg/mL and the Cmax90 came out at 149 µg/mL.

As for `CCOC(=O)N1c2ccc(C(F)(F)F)cc2C(N(Cc2cc(C(F)(F)F)cc(C(F)(F)F)c2)C(=O)OC)CC1CC` (stereo not drawn) [Crystalline Drug 1, 4-[(3,5-bis-trifluoromethyl-benzyl)-methoxycarbonyl-amino]-2-ethyl-6-trifluoromethyl-3,4-dihydro-2H-quinoline-1-carboxylic acid ethyl ester], the AUC90 in data set [2] (Drug 1, area under the curve of drug concentration versus time in the first ninety minutes) is <88 µg·min/mL. The Cmax90 in data set [2] (Drug 1, maximum concentration of drug in the first ninety minutes) was <1 µg/mL. In addition, the “Drug 1 Concentration” value in data set [2] (7.2 mg dispersion in 1.8 mL, time 0 min) is 0 µg/mL; in data set [2] (time 4 min) it was <1 µg/mL; in data set [2] (time 10 min) it was <1 µg/mL; in data set [2] (time 20 min), <1 µg/mL; in data set [2] (time 40 min), <1 µg/mL; in data set [2] (time 90 min), <1 µg/mL. Moreover, in data set [2] (time 1200 min), the “Drug 1 Concentration” value is <1 µg/mL. The AUC was 0 µg·min/mL in data set [2] (elapsed time 0 min); <2 µg·min/mL in data set [2] (elapsed time 4 min); <8 µg·min/mL in data set [2] (elapsed time 10 min); <18 µg·min/mL in data set [2] (elapsed time 20 min); <38 µg·min/mL in data set [2] (elapsed time 40 min); <88 µg·min/mL in data set [2] (elapsed time 90 min). Besides, in data set [2] (elapsed time 1200 min), the AUC is <1,200 min · μg/mL.
